From patent US8853227B2, “Methotrexate adjuvants to reduce toxicity and methods for using the same” (Tosk, Incorporated, priority 2008, dated 2014)

Legend:
Drosophila melanogaster = experiment: Fly Study I (protection from MTX-induced lethality); format: in vivo; conditions: for Flies Alive (Number): Fly Study I method, test compound + MTX (MTX Alone: no adjuvant), Table 3
Protocol: In this study, Drosophila melanogaster eggs (50 eggs per vial) were treated with either 0.005 mg TK-112690+0.4 mg MTX (Group 1), 0.01 mg TK-112690+0.4 mg MTX (Group 2), 0.04 mg TK-112690+0.4 mg MTX (Group 3), 0.1 mg TK-112690+0.4 mg MTX (Group 4), 0.4 mg MTX alone (Group 5) or saline blank (Group 6). Two vials of eggs for each dose group were evaluated for viability (viable flies plus pupae).
The efficacy of cancer chemotherapy can be improved if agents are available to reduce the adverse events associated with treatment with cytotoxic agents. To this end, Drosophila melanogaster (commonly know as the fruit fly) is an ideal organism to screen chemical compounds for such side-effect-reducing agents. This study is aimed at finding a dose of a 2,2′-anhydropyrimidine test article that protects against MTX-induced lethality in insects.
Increasing amounts of a 2,2′-anhydropyrimidine test article (typically 0.03 to 0.1 mg) are mixed in an aqueous solution with 0.3 (or 0.4) mg MTX. Four milliliters (mL) of a 2,2′-anhydropyrimidine test article+MTX solutions are added to an appropriate amount of instant fly medium. Fruit fly eggs are added to a 2,2′-anhydropyrimidine test article+MTX treated medium and incubated for up to 31 days. After the 31 day incubation, each assay is scored by the number of mature fly and pupae per vial.
The assays are set up in clear sterile polystyrene narrow diameter vials from Applied Scientific (Hampton, N.H.). Vials are stored in trays and incubated in a darkened 25° C. incubator.
Reagents and materials used are: 50 mg/mL MTX in H2O (pH 8), 20 mg/mL of the 2,2′-anhydropyrimidine test article in H2O, water, sterile polystyrene narrow diameter vials from Applied Scientific, Instant Drosophila Food Medium, Oregon-R Drosophila melanogaster, 25° C. incubator, and 15 mL polystyrene conical tubes
Each assay is performed in a separate fly vial. Increasing amounts of a 2,2′-anhydropyrimidine (0.005 to 1.0 mg) are tested for MTX side-effect-reduction on fly eggs. Amounts of the 2,2′-anhydropyrimidine test article are drawn from a 20 mg/mL stock solution dissolved in water. Nine mL of the 2,2′-anhydropyrimidine+0.3 (or 0.4) mg MTX solutions are pre-mixed with water in a 15 mL conical tube. Duplicate assays receive 4 mL of the 2,2′-anhydropyrimidine test article+0.3 (or 0.4) mg MTX solutions. Pre-measured amounts of instant drosophila medium are added to each assay to achieve optimal hydration level. Controls are (1) 4 mL water alone and (2) 0.3 (or 0.4) mg MTX alone. Precisely 50 fly eggs aged for ˜18 hours are added to each assay. Assays are capped with a fitted plug and incubated for 30 days in a darkened 25° C. incubator. Assays are scored by the number of dead pupae or adult flies per vial.

CCRF-CEM cells = experiment: Cell Culture Study I (MTX cytotoxicity, alamarBlue); format: cell-based, human; conditions: 72 hours
Protocol: In this study, CCRF-CEM cells purchased from ATCC were cultured and then 12 tubes containing approximately 10^6 cells each treated for 72 hours with media (Group1), MTX 0.03 μM (Group2), MTX+Leucovorin 1 μM (Group3), MTX+Leucovorin 10 μM (Group4), MTX+Leucovorin 100 μM (GroupS), MTX+TK-112690 1 μM (Group6), MTX+TK-112690 10 μM (Group7) and MTX+TK-112690 100 μM (Group8). […] Viability was measured as percent reduction of alamarBlue absorbance.
The tumor cell line CCR-CEM (human T-cell acute lymphoblastic leukemia) is obtained from American Type Culture Collection (CRL-1593.2) and cultured in accordance with the product information sheet with the following exceptions: 55.3 cm^2 Petri dishes are used instead of 75 cm^2 culture flasks, and 1% penicillin-streptomycin solution (HyClone SV30010) and 1% GlutaMAX™ (Gibco 35050) are added to the culture medium.
TK-112690, the representative 2,2′-anhydropyrimidine test article, is dissolved in 40% DMSO, sterile filtered then diluted with sterile distilled water to obtain initial working solutions of 10, 100 and 1000 μM. In testing, a 100 fold dilution is made in culture media to give final assay concentrations of 0.1, 1.0 and 10.0 μM. MTX (SAFC Biosciences M8407) is dissolved in sterile distilled water and 5 N NaOH then sterile filtered. The final pH of the stock solution is 7.8 and working solutions are made with sterile distilled water for final assay concentrations of 30, 3.0, 0.3, 0.03 and 0.003 μM. Leucovorin (Sigma F-7878) is dissolved in sterile distilled water, sterile filtered and diluted with sterile distilled water for final assay concentrations of 0.1, 1.0 and 10.0 μM.
Aliquots of 100 μL of cell suspension are plated in 96 well microtiter plates (Corning costar 3595) and placed in an atmosphere of 5% CO2 at 37° C. (Fisher Scientific Isotemp 3500 CO2 Incubator). After 24 hours, 100 μL of growth medium [RPMI-1640 w/L-glutamine (Cambrex 12-702Q) fortified with sodium pyruvate (HyClone SH30239.01), fetal bovine serum (SAFC Biosciences 12107C) and HEPES buffer (Gibco 15630)] and 2 μL of test solution or vehicle are added respectively per well and the plates incubated for an additional 72 hour incubation. MTX is evaluated at concentrations of 0.003, 0.03, 0.30 and 3.0 μM alone or in combination with either a 2,2′-anhydropyrimidine test article or Leucovorin at concentrations of 0.1, 1.0, 10.0 μM. At the end of incubation, the efficacy of anti-cell proliferation is determined by optical absorbance at A=570 and 600 nm [Spectramax 250 (Molecular Devices)] in accordance with the standard alamarBlue™ (Biosource) protocol.
Group 1 is the cell control (media treated). Group 2 corresponds to cells treated with 0.03 μM MTX. Group 3 are cells treated with 1.0 μM Leucovorin. Group 4 are cells treated with 0.1 μM Leucovorin. […]

SMILES: CC(=N)OCc1cn2c(nc1=O)O[C@H]1[C@H](O)[C@@H](CO)O[C@H]12 [TK-000010]
- Flies Alive (Number) (Drosophila melanogaster): 0

SMILES: COCc1cn2c(nc1=O)O[C@H]1[C@H](O)[C@@H](CO)O[C@H]12 [TK-000009]
- activity in the Fly model for protection against MTX-induced lethality (Drosophila melanogaster): active
- Flies Alive (Number) (Drosophila melanogaster): 5

SMILES: O=c1nc2n(cc1NCc1ccccc1)[C@@H]1O[C@H](CO)[C@@H](O)[C@@H]1O2 [TK-000006]
- Flies Alive (Number) (Drosophila melanogaster): 0

SMILES: Nc1nc2c(c(=O)[nH]1)N(C=O)C(CNc1ccc(C(=O)N[C@@H](CCC(=O)O)C(=O)O)cc1)CN2 (some centres unmarked) [Leucovorin, reference compound]
- cell viability, Leucovorin+MTX versus MTX alone (protection by positive control) (CCRF-CEM cells; 0.03 μM MTX + Leucovorin, p<0.000 and 0.002): statistically different
- cell viability, test article alone versus control (CCRF-CEM cells; without MTX): not statistically different than control

SMILES: Cc1cn2c(nc1=O)O[C@H]1[C@H](O)[C@@H](CN=[N+]=[N-])O[C@H]12 [TK-000011]
- Flies Alive (Number) (Drosophila melanogaster): 0

SMILES: O=c1nc2n(cc1COCc1ccccc1)[C@@H]1O[C@H](CO)[C@@H](O)[C@@H]1O2 [TK-000008]
- Flies Alive (Number) (Drosophila melanogaster): 0

SMILES: Cc1ccc(SCc2cn3c(nc2=O)O[C@H]2C(O)[C@@H](CO)O[C@H]23)cc1 (some centres unmarked) [TK-000016]
- Flies Alive (Number) (Drosophila melanogaster): 0

SMILES: Cc1cn2c(nc1=O)O[C@H]1C(O)[C@@H](CF)O[C@H]12 (some centres unmarked) [TK-000015]
- Flies Alive (Number) (Drosophila melanogaster): 0

SMILES: CCOCc1cn2c(nc1=O)O[C@H]1[C@H](O)[C@@H](CO)O[C@H]12 [TK-000007]
- Flies Alive (Number) (Drosophila melanogaster): 3
